How the values were obtained:
Type in all cases: cell-based
[1] = test system: keratinocytes; assay: Keratinocyte SDS viability assay (Neutral Red); details: vs 2 μg/ml SDS alone; 1 way ANOVA, p<0.05
Procedure: (§1) After incubating for 24 hours the medium was removed and the viability determined by the Neutral Red method.

[2] = test system: procollagen-I; assay: Dot blot assay for procollagen-I synthesis in human dermal fibroblasts
Procedure: Primary human foreskin fibroblasts at passage 2 (P2) were seeded into 12-well plates at 10000 cells/cm^2 and maintained for 24 hours in an atmosphere of 5% carbon dioxide and 4% oxygen in Dulbeccos Modified Eagles Medium (DMEM) supplemented with 10% foetal calf serum. After this time the cells were washed with serum free DMEM and then incubated in fresh serum free DMEM for a further 60 hours. The fibroblast monolayers were then washed again with serum free DMEM. Test reagents and vehicle controls were added to the cells in triplicate in a final volume of 0.4 ml/well fresh serum free DMEM and incubated for a further 24 hours. This fibroblast conditioned medium was either analysed immediately or snap frozen in liquid nitrogen and stored at -70° C. for future analysis. The cells were then counted and data from the dot-blot analysis subsequently standardised to cell number.
Samples of conditioned medium from dermal fibroblasts treated with vehicle (as a control) or test reagents were supplemented with 20 mM dithiothreitol (1:10 dilution of 200 mM stock solution) and 0.1% sodium dodecylsulphate (1:100 dilution of 10% stock solution), mixed well and then incubated at 75° C. for 2 minutes. […]
In order to normalise the results the effects of the test substance was determined relative to a vehicle treated control value of 100 arbitrary units. […]

[3] = test system: keratinocytes; assay: Keratinocyte viability by neutral red up-take in PGE2 assay; details: at the concentrations tested
Procedure: as §1
The cells were then tested for viability by the neutral red up-take method described in example 2 above.

[4] = test system: B16-F1 mouse melanoma cells; assay: Pigmentation assay (melanin in media)
Procedure: B16-F1 mouse melanoma cells (American Type Culture Collection, Maryland, USA) were maintained in 75 cm^2 culture flasks in RPMI 1640 medium (ICN-Flow, cat. no. 12-60-54) supplemented with L-glutamine (4 mM) and 10% foetal bovine serum (FBS) at 37° C. in a water saturated, 5% CO2 in air atmosphere. Cells were passaged twice weekly.
Subconfluent B16 cells were seeded in 96 well microtiter plates at a density of 5000 cells/well and cultured overnight in DMEM (Life Technologies, NY) containing 10% foetal bovine serum and 1% penicillin/streptomycin without phenol red at 37° C. under 5% CO2. After 24 hours, the media was replaced with fresh media containing the test materials or vehicle controls. Cells were incubated for 72 hours at which time melanin was visible in the control wells. Next, the melanin containing media from each well was transferred to a clean 96 well plate and quantified by reading the absorbance at 530 nm using a microplate spectrophotometer (Dynatech MR5000) and correcting for the baseline absorption of fresh medium. As the corrected absorption is proportional to the melanin concentration the percentage pigmentation for a skin lightening test substance can be calculated as: […]
where OD530 test and OD530 ref indicate the average corrected absorption of the medium from the wells with the test substance and that of the medium from the wells without the test substance. The percentage inhibition caused by the test substance is then 100 - % pigmentation.

CCCCCCCCCCC/C=C\CCCCC(=O)O [Petroselinic Acid, petroselinic acid]
Keratinocyte viability vs SDS alone (in words) [1]: significantly increased viability
activity at 10 µM ([2]; Homo sapiens, Fibroblast, 10 μM, 24 hours, n = 3, read-out: Procollagen-I synthesis relative to vehicle treated control value of 100): 118 ± 8.6%
procollagen-I synthesis (in words) ([2]; compared to the control): significantly upregulates
Cell viability of keratinocytes (in words) [3]: not found to be adversely effected
melanin production (in words) [4]: inhibits melanin production
activity at 0.01 % ([4]; Mus musculus, B16-F1, 0.01%, 72 hours, n = 4, ** (0.000)): 79.5%
activity at 0.013 % ([4]; Mus musculus, B16-F1, 0.013%, 72 hours, n = 4, ** (0.000)): 40.4%
activity at 0.02 % ([4]; Mus musculus, B16-F1, 0.02%, 72 hours, n = 4, ** (0.000)): 55.3%
activity at 0.04 % ([4]; Mus musculus, B16-F1, 0.04%, 72 hours, n = 4, ** (0.000)): 3.9%
activity at 0.1 % ([4]; Mus musculus, B16-F1, 0.1%, 72 hours, n = 4, ** (0.000)): 19.3%
